Laboratory results from article PMC4269550, “Lead Optimization of a Pyrazole Sulfonamide Series of Trypanosoma bruceiN-Myristoyltransferase Inhibitors: Identification and Evaluation of CNS Penetrant Compounds as Potential Treatments for Stage 2 Human African Trypanosomiasis” (Journal of Medicinal Chemistry, 2014).
Like-named read-outs stand apart in the source and are kept apart here.

Assays:
HsNMT = assay type: biochemical, human; conditions: for IC50: mean of two or more determinations; for S = IC50 HsNMT/EC50 T. brucei: selectivity
[1] = tested on: MRC5, human lung fibroblast cells; experiment: in vitro; assay type: cell-based
TbNMT = target: T1, TbNMT (Trypanosoma brucei brucei, UniProt Q388H8); experiment: NMT enzyme inhibition scintillation proximity assay (TbNMT); assay type: biochemical, T. brucei
T1 sequence (Q388H8 1-446): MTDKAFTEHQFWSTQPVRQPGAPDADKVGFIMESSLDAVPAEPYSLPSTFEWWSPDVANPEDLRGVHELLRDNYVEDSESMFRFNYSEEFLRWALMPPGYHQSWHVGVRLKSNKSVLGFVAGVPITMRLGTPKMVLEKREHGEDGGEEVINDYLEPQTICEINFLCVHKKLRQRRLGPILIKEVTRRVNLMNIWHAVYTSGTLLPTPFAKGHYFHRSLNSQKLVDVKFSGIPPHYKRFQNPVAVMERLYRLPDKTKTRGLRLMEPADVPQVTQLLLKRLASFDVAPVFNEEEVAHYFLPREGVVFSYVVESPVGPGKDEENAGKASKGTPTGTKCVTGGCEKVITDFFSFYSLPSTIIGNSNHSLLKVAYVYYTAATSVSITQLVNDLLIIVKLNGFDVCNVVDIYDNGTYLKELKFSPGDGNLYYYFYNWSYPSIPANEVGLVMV

[2] = tested on: T. b. brucei, BSF427, VSG118; experiment: Cell viability assay, trypanosome; assay type: cell-based
[3] = Intrinsic clearance (Cli), mouse liver microsomes; assay type: in vitro ADME
in vitro = assay type: cell-based, human; conditions: human; read-out: MRC-5 EC50
[4] = In vitro metabolite identification with mouse microsomes; assay type: in vitro ADME
[5] = mean of two or more determinations, read-out: TbNMT IC50

Row | SMILES | IC50 (HsNMT) [nM] | S = IC50 HsNMT/EC50 T. brucei (HsNMT) | EC50 [1] [nM] | IC50 (TbNMT; [5]) [nM] | EC50 [2] [nM] | other results
1 | Cc1nn(C)c(C)c1N(C(F)F)S(=O)(=O)c1c(Cl)cc(CCCOC[C@@H]2CCCCN2)cc1Cl [compound 88] | 840 | 10 | 5300 | 7 | 87 | 
2 | Cc1nn(C)c(C)c1N(C(F)F)S(=O)(=O)c1c(Cl)cc(CCCOC2CCC(N(C)C)CC2)cc1Cl (centres unmarked) [compound 76] | 5 | 2 | 570 | 2 | 3 | 
3 | Cc1nn(C)c(C)c1NS(=O)(=O)c1c(F)cc(-c2ccnc(N3CCNCC3)c2)cc1F [compound 59] |  |  | 4700 | 4 | 5 | Cli (mouse) ([3]; Table S1, unit not given): < 0.5
4 | Cc1nn(C)c(C)c1N(C(F)F)S(=O)(=O)c1c(Cl)cc(CCCOC2CC3CCC(C2)N3C)cc1Cl (centres unmarked) [compound 72] | 2 | 10 | 70 |  | 0.2 | 
5 | Cc1nn(C)c(C)c1N(C(F)F)S(=O)(=O)c1c(Cl)cc(CCCN2CCCNCC2)cc1Cl [compound 66] |  |  | 340 |  |  | 
6 | Cc1nn(C)c(C)c1NS(=O)(=O)c1ccc(-c2ccnc(N3CCNCC3)c2)cc1Cl [compound 54] |  |  | 250 |  |  | 
7 | Cc1nn(C)c(C)c1N(C(F)F)S(=O)(=O)c1c(Cl)cc(CCCOC[C@@H]2CCCN2)cc1Cl [compound 86] | 110 | 18 | 3300 | 2 | 6 | 
8 | Cc1cc(-c2ccnc(N3CCNCC3)c2)ccc1S(=O)(=O)Nc1c(C)nn(C)c1C [compound 57] |  |  | 530 |  | 4 | 
9 | Cc1nn(C)c(C)c1N(C(F)F)S(=O)(=O)c1c(Cl)cc(CCCOC[C@H]2CCCCN2)cc1Cl [compound 89] | 570 | 7 | 5000 | 7 | 85 | 
10 | Cc1nn(C)c(C)c1NS(=O)(=O)c1ccc(-c2ccnc(N3CCNC(Cc4ccccc4)C3)c2)cc1 (centres unmarked) [compound 64] | 1510 | < 1 |  |  |  | EC50 (in vitro): > 50000 nM; IC50 (TbNMT): 110 nM; EC50 ([2]; Trypanosoma brucei): > 10000 nM
11 | Cc1nn(C)c(C)c1N(C(F)F)S(=O)(=O)c1c(Cl)cc(CCCOC[C@H]2CCCN2)cc1Cl [compound 87] | 33 | 7 | 3200 | 3 |  | 
12 | Cc1nn(C)c(C)c1N(C)[S+](=O)([O-])c1c(Cl)cc(CCCC2CCN(C)CC2)cc1Cl [compound 37] |  |  |  |  |  | % Parent remaining (t = 15 min) ([4]; 5µM, 15 min at 37°C, mouse liver microsomes): 25%; sulfonamide N-dealkylation on incubation with mouse microsomes ([4]; words): N-dealkylated sulfonamide as the predominant metabolite; EC50 (in vitro): 1100 nM; Cli (mouse) ([3]; mouse liver microsomes): 7.3 mL min^–1 g^–1; Cli ([3]; mouse microsomes): 7.3 mL/min/g
13 | Cc1nn(C)c(C)c1N(C(F)F)[S+](=O)([O-])c1c(Cl)cc(CCCN2CCCN(C)CC2)cc1Cl [compound 65] |  |  |  |  |  | EC50 (in vitro): 410 nM; EC50 ([2]; Trypanosoma brucei): 0.6 nM
14 | Cc1nn(C)c(C)c1N(C(F)F)S(=O)(=O)c1c(Cl)cc(CCCCCCN2CCOCC2)cc1Cl [compound 79] |  |  | 12200 | 55 | 320 | 
15 | Cc1nn(C)c(C)c1N(C(F)F)[S+](=O)([O-])c1c(Cl)cc(CCCCCCn2ccnc2C)cc1Cl [compound 68] |  |  |  |  |  | EC50 (in vitro): 910 nM; EC50 ([2]; Trypanosoma brucei): 5 nM
